The values below are quoted from earlier work in patent US6656923B1, “Uncomplexed cyclodextrin compositions for odor and wrinkle control” (The Procter & Gamble Company, priority 1997, dated 2003).

As to `ClC=CC[N+]12CN3CN(CN(C3)C1)C2.[Cl-]` [Dowicil 200, 1-(3-Chlorallyl)-3,5,7-triaza-1-azoniaadamantane chloride], the “solubility in water” value is listed as “freely soluble in water”.
